Results taken from patent publication US20230263758A1, “COMPOSITIONS OF EDTA HAVING ACTIVITY AGAINST PLANKTONIC AND BIOFILM CELLS OF CLINICALLY RELEVANT PATHOGENS” (SterileCare Inc., priority 2022, published 2023).
Counter-ions that a name gives are not always drawn.

Tests used:
Proteus mirabilis ON153 [1] = test: Checkerboard FBEC index, 48-h biofilm; assay type: cell-based; conditions: P. mirabilis ON153 biofilm; EDTA + chlorhexidine HCl
Experimental: (§2) In step (4), microtiter plates are incubated at 37° C. for 24 h. then (6), after incubation, the bacterial and fungal cells were dislodged from the pegs into the recovery medium described above.
(§3) Three 10-μL aliquots, for a total of 30 μL from each well of recovery medium, were spotted on MH agar plates and incubated for 24 h at 37° C. […] The FBEC determination is a modification of the FICI.

[2] = test system: 48-h old biofilms of bacterial and fungal test organisms; test: Rapid biofilm eradication, 2-h exposure; assay type: cell-based; conditions: each agent alone at its MBEC
Experimental: Determining rapid biofilm eradication by tetrasodium EDTA, ethanol, and chlorhexidine HCl alone and in combination was performed. After biofilm formation, control pegs (n=6) were removed and analyzed to determine the starting biofilm cell numbers via the drop dilution method. The 48-h old biofilms on the pegs were exposed to different concentrations of test antimicrobials, dissolved in an appropriate growth medium, for two h to evaluate their efficacy alone and in combination. […] Following treatment, pegs were washed twice with sterile PBS, and the biofilm cells were dislodged into recovery medium and enumerated as described above.
The method for rapid biofilm eradication ability of test antimicrobials alone and in combination against 48-h-old biofilms within two h exposure time included (1) choosing different concentrations of test antimicrobials to assess their potency in eradicating preformed biofilms of study organisms within two h. Then (2) the quantitative recovery from biofilms following exposure to the antimicrobial solutions for bacterial strains (FIGS. 4A-4C) and fungal strains (FIG. 5) was evaluated.

C. albicans ON47 [3] = test: Checkerboard titration, FICI; assay type: cell-based, Candida albicans
Experimental: A fourth composition and solution included tetrasodium EDTA with ethanol or chlorhexidine HCl. This fourth composition and solution were created using checkerboard titration methods using micro broth dilution in 96-well microtiter plates. The concentrations of antimicrobials used were based on previously determined MIC values. Briefly, 200 μL of two-fold dilutions of tetrasodium EDTA and ethanol or chlorhexidine HCl were prepared in MH or MH II broth with standardized cell suspension. […] Microtiter plates were incubated at 37° C. for 24 h, and the results were analyzed. Each test was performed in duplicate and included a growth control without adding any antimicrobials.

[4] = test system: 48-h-old biofilms of bacterial and fungal strains; test: MBEC assay, summary, 24 h exposure of 48-h-old biofilms; assay type: cell-based
Experimental: A biofilm cultivation cell composition was provided. This fifth composition was created using an MBEC Assay® biofilm inoculator, consisting of a polystyrene lid with 96 downward-protruding pegs and a corresponding base used to grow biofilms. A standardized inoculum was diluted in an appropriate biofilm growth medium to achieve a viable cell count of 1.5×10^6 CFU/mL of bacterial cells or 5×10^5 CFU/mL of fungal cells. Then, 150 μL of this inoculum was transferred into each appropriate well, and the peg lids were inserted into the microtiter plates. The plates were sealed with Parafilm and were incubated at optimum temperature for 48 h with slight rocking for bacteria and shaking at 200 rpm for fungal strains. After incubation, the peg lid was removed from the base and rinsed twice with sterile phosphate-buffered saline (PBS) for 2 min to remove loosely attached non-sessile cells. Before the antimicrobial challenge, the pegs in column 1 (n=8) were considered the biofilm growth control; these pegs were removed from the lids, placed into 200 μL of recovery medium, and analyzed for starting biofilm cell numbers as described below. […] After the antimicrobial challenge, the pegs were rinsed twice with sterile PBS for 2 min and placed into a new 96-well plate containing 200 μL of recovery medium. The recovery plates were sealed with Parafilm, and biofilm cells were dislodged from the pegs by sonication for 30 min with a Branson 3510 bath sonicator. The biofilm cells in the recovery medium were serially diluted, and a drop dilution assay was performed to enumerate the viable cells. MBEC values were determined as the minimum concentration of antimicrobials that yielded a viable cell count at or lower than the 125 CFU/mL detection limit.

[5] = test system: Staphylococcus aureus ON89; test: Checkerboard FBEC index, 48-h biofilm; assay type: cell-based; conditions: S. aureus ON89 biofilm
Experimental: as §2, §3

[6] = test system: Pseudomonas aeruginosa SK1; test: MBC/MFC determination; assay type: cell-based; conditions: P. aeruginosa SK1; agent alone
Experimental: (§1) An assay was made using a minimum inhibitory concentration (MIC) and minimum bactericidal concentration (MBC) and minimum fungicidal concentration (MFC) determination. The MIC was determined by the micro broth dilution method in 96-well plates. Serial two-fold dilutions of tetrasodium EDTA (from 2% to 0.015%), ethanol (from 50% to 0.1%) and chlorhexidine HCl (from 100 μg/mL to 0.025 μg/mL) were prepared in MH broth with a final volume of 90 μL per well. A 10 μL containing 1×10^5 bacterial cells or 2×10^3 fungal cells were added to each well. The inoculated plates were covered with a lid, sealed with Parafilm, and incubated for 24 h at 37° C. with slight rocking on a tilting platform shaker. After incubation, the optical density at 600 nm (OD 600) of the cultures in each well was measured using an xMark™ Microplate Absorbance Spectrophotometer (Bio-Rad). […] MBCs and MFCs were determined by transferring 100 μL from each well with no apparent growth onto appropriate agar plates, followed by incubation for 24 h at 37° C.

[7] = test system: Stenotrophomonas maltophilia ON17; test: MBC/MFC determination; assay type: cell-based; conditions: S. maltophilia ON17; agent alone
Experimental: as §1

Proteus mirabilis ON153 [8] = test: MBC/MFC determination; assay type: cell-based; conditions: P. mirabilis ON153; agent alone
Experimental: as §1

Candida albicans SK4b [9] = test: MBC/MFC determination; assay type: cell-based; conditions: C. albicans SK4b; agent alone
Experimental: as §1

[10] = test system: Staphylococcus epidermidis ON170; test: MBC/MFC determination; assay type: cell-based; conditions: S. epidermidis ON170; agent alone
Experimental: as §1

Serratia marcescens SK2 = test: MBC/MFC determination; assay type: cell-based; conditions: S. marcescens SK2; agent alone
Experimental: as §1

Escherichia coli ON29 [11] = test: MBC/MFC determination; assay type: cell-based; conditions: E. coli ON29; agent alone
Experimental: as §1

[12] = test system: Staphylococcus aureus ON89; test: MBC/MFC determination; assay type: cell-based; conditions: S. aureus ON89; agent alone
Experimental: as §1

[13] = test system: Pseudomonas aeruginosa SK1; test: MIC, micro broth dilution; assay type: cell-based; conditions: P. aeruginosa SK1; agent alone
Experimental: as §1

Proteus mirabilis ON153 [14] = test: MIC, micro broth dilution; assay type: cell-based; conditions: P. mirabilis ON153; agent alone
Experimental: as §1

Candida albicans SK4b [15] = test: MIC, micro broth dilution; assay type: cell-based; conditions: C. albicans SK4b; agent alone
Experimental: as §1

[16] = test system: Staphylococcus epidermidis ON170; test: MIC, micro broth dilution; assay type: cell-based; conditions: S. epidermidis ON170; agent alone
Experimental: as §1

Escherichia coli ON29 [17] = test: MIC, micro broth dilution; assay type: cell-based; conditions: E. coli ON29; agent alone
Experimental: as §1

[18] = test system: Staphylococcus aureus ON89; test: MIC, micro broth dilution; assay type: cell-based; conditions: S. aureus ON89; agent alone
Experimental: as §1

C. albicans ON47 [19] = test: Checkerboard FBEC index, 48-h biofilm; assay type: cell-based, Candida albicans; conditions: EDTA + chlorhexidine HCl
Experimental: as §2
Three 10-μL aliquots, for a total of 30 μL from each well of recovery medium, were spotted on MH agar plates and incubated for 24 h at 37° C.

MRSA ON184 = test: MIC, micro broth dilution; assay type: cell-based, Staphylococcus aureus; conditions: agent alone
Experimental: as §1

[20] = EDTA + chlorhexidine HCl checkerboard

Compound: [H]/N=C(\N/C(=N/[H])NCCCCCCNC(=N)NC(=N)Nc1ccc(Cl)cc1)Nc1ccc(Cl)cc1 [Chlorhexidine HCl, chlorhexidine HCl, reference compound]
- Biofilm eradication concentration in combination (FBEC) (Proteus mirabilis ON153 [1]): 3.125 µg/mL
- Eradication of preformed biofilms after 2 h of exposure [2]: failed to eradicate
- Inhibitory concentration in combination (C. albicans ON47 [3]; [20]): 0.8 µg/mL
- Concentration alone able to eradicate all established biofilms following 24 h of treatment [4]: 100 µg/mL
- Biofilm eradication concentration in combination (FBEC) ([5]; EDTA + chlorhexidine HCl): 3.125 µg/mL

Compound: O=C([O-])CN(CCN(CC(=O)[O-])CC(=O)[O-])CC(=O)[O-].[Na+].[Na+].[Na+].[Na+] [EDTA, tetrasodium EDTA]
- MBC/MFC [6]: 1 % w/v
- MBC/MFC [7]: 1 % w/v
- MBC/MFC (Proteus mirabilis ON153 [8]): 2 % w/v
- MBC/MFC (Candida albicans SK4b [9]): 1 % w/v
- MBC/MFC [10]: 0.5 % w/v
- MBC/MFC (Serratia marcescens SK2): 2 % w/v
- MBC/MFC (Escherichia coli ON29 [11]): 1 % w/v
- MBC/MFC [12]: 1 % w/v
- Eradication of preformed biofilms after 2 h of exposure [2]: failed to eradicate
- Inhibitory concentration in combination (C. albicans ON47 [3]; [20]): 0.125 % w/v
- Inhibitory concentration in combination (C. albicans ON47 [3]; EDTA + ethanol checkerboard): 0.25 % w/v
- MIC [13]: 0.25 % w/v
- MIC (Proteus mirabilis ON153 [14]): 1 % w/v
- MIC (Candida albicans SK4b [15]): 1 % w/v
- MIC [16]: 0.063 % w/v
- MIC (Escherichia coli ON29 [17]): 0.5 % w/v
- MIC [18]: 0.063 % w/v
- Biofilm eradication concentration in combination (FBEC) (C. albicans ON47 [19]): 0.031 % w/v
- Concentration alone able to eradicate all established biofilms following 24 h of treatment [4]: 4%
- MIC (MRSA ON184): 0.063 % w/v
- Biofilm eradication concentration in combination (FBEC) ([5]; EDTA + ethanol): 0.063 % w/v
